In ChEMBL document CHEMBL1144842, “Design and campaign synthesis of piperidine- and thiazole-based histone deacetylase inhibitors” (Bioorg Med Chem Lett, 2008):
Activity calls are given as the source filed them. The calls are words filed in the database; no cut-off is given here.

What was measured:
[1] = tested on: HCT-116; assay: Antiproliferative activity against human HCT116 cells after 72 hrs by MTS assay; type: functional, cell-based; details: HCT-116, 72 h
[2] = target: Histone deacetylase; assay: Inhibition of human HDAC in HeLa cells; type: cell-based
[3] = Lipophilicity, log D of the compound; details: octanol/water
[4] = Half life in mouse at 54.8 umol/kg, po; type: ADME, organism-based; details: in vivo
[5] = target: Histone deacetylase 1 (Homo sapiens, UniProt Q13547); assay: Inhibition of human recombinant HDAC1 expressed in Hi5 cells; design: species or system BTI-TN-5B1-4
Sequence of Histone deacetylase 1 (Q13547 whole entry): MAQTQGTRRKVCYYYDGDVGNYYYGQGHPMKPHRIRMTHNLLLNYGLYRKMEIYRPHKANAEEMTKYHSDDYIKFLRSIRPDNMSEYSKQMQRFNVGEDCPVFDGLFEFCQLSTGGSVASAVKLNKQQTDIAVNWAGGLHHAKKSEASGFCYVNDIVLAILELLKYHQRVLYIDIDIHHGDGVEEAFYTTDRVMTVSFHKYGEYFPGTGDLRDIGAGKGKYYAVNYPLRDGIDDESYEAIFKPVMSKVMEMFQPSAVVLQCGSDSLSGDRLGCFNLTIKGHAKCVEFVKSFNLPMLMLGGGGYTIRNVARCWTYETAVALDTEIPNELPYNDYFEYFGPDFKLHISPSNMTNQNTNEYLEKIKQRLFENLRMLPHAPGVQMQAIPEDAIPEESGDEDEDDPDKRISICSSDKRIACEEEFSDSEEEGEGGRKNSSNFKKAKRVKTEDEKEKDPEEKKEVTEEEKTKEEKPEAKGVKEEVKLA

[6] = Unbound ligand in Han Wistar rat plasma at 54.8 umol/kg, po; type: ADME, organism-based; details: at 54.8 µmol/kg
[7] = tested on: Homo sapiens; assay: Antitumor activity against human A549a xenografted mouse at 12.5 mg/kg, po for 18 days; type: functional, organism-based; design: dose 12.5 mg/kg
[8] = Half life in Beagle dog at 3 umol/kg, po; type: ADME, organism-based, Canis lupus familiaris; details: in vivo
[9] = Half life in Beagle dog at 0.8 umol/kg, iv; type: ADME, organism-based, Canis lupus familiaris; details: in vivo
[10] = Half life in Han Wistar rat at 2.5 umol/kg, iv; type: ADME, organism-based; details: in vivo
[11] = Unbound ligand in Beagle dog plasma at 3 umol/kg, po; type: ADME, organism-based, Canis lupus familiaris; details: at 3 µmol/kg
[12] = Clearance in Han Wistar rat at 2.5 umol/kg, iv; type: ADME, organism-based; details: in vivo
[13] = Half life in mouse at 5 umol/kg, iv; type: ADME, organism-based; details: in vivo
[14] = Half life in Han Wistar rat at 54.8 umol/kg, po; type: ADME, organism-based; details: in vivo
[15] = Volume of distribution in steady state in mouse at 5 umol/kg, iv; type: ADME, organism-based; details: in vivo, read-out: Vdss
[16] = Clearance in Beagle dog at 0.8 umol/kg, iv; type: ADME, organism-based, Canis lupus familiaris; details: in vivo
[17] = Volume of distribution in steady state in Beagle dog at 0.8 umol/kg, iv; type: ADME, organism-based, Canis lupus familiaris; details: in vivo, read-out: Vdss
[18] = Volume of distribution in steady state in Han Wistar rat at 2.5 umol/kg, iv; type: ADME, organism-based; details: in vivo, read-out: Vdss
[19] = Clearance in mouse at 5 umol/kg, iv; type: ADME, organism-based; details: in vivo
[20] = target: Cytochrome P450 3A4 (Homo sapiens, UniProt P08684)
Sequence of Cytochrome P450 3A4 (P08684 whole entry): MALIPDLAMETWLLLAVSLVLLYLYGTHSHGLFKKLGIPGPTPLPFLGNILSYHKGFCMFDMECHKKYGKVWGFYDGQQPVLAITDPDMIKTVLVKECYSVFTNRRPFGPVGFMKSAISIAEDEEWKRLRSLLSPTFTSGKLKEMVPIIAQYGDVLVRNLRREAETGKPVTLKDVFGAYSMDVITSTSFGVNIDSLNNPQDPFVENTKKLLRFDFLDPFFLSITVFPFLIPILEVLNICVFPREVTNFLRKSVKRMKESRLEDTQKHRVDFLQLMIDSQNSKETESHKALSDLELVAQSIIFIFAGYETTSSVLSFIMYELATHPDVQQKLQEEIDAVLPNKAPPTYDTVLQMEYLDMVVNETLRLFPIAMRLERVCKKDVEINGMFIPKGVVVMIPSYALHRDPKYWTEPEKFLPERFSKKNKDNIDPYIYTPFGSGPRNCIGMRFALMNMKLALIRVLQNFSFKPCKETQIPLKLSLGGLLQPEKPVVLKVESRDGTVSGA

[21] = target: Cytochrome P450 2D6 (Homo sapiens, UniProt P10635)
Sequence of Cytochrome P450 2D6 (P10635 whole entry): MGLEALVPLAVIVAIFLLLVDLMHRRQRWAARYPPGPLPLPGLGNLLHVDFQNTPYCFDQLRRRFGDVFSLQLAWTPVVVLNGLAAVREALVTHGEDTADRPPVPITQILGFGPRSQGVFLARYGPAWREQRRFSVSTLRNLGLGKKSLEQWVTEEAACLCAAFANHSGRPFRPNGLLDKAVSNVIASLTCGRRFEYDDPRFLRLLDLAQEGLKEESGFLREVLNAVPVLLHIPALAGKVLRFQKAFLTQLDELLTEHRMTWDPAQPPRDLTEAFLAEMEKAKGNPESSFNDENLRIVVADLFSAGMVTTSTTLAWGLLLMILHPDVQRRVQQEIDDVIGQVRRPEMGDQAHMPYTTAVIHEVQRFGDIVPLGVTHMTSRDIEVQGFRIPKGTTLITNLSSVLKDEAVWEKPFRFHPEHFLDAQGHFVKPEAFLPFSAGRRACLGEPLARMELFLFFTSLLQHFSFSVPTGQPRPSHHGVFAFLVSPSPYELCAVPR

[22] = target: Cytochrome P450 2C19 (Homo sapiens, UniProt P33261)
Sequence of Cytochrome P450 2C19 (P33261 whole entry): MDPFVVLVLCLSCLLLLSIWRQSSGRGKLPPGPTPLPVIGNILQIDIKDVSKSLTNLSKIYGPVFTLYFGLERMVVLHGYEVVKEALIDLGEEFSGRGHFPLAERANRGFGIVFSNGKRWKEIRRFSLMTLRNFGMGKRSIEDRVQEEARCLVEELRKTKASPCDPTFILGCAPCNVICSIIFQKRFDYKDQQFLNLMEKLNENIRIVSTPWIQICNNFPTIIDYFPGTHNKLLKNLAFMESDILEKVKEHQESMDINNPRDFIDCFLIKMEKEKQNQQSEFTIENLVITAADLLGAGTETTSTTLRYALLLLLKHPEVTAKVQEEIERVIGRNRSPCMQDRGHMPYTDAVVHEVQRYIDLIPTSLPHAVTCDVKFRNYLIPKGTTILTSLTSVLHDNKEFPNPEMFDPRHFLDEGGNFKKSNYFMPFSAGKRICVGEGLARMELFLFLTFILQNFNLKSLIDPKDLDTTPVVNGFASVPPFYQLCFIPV

[23] = target: Cytochrome P450 2C9 (Homo sapiens, UniProt P11712)
Sequence of Cytochrome P450 2C9 (P11712 whole entry): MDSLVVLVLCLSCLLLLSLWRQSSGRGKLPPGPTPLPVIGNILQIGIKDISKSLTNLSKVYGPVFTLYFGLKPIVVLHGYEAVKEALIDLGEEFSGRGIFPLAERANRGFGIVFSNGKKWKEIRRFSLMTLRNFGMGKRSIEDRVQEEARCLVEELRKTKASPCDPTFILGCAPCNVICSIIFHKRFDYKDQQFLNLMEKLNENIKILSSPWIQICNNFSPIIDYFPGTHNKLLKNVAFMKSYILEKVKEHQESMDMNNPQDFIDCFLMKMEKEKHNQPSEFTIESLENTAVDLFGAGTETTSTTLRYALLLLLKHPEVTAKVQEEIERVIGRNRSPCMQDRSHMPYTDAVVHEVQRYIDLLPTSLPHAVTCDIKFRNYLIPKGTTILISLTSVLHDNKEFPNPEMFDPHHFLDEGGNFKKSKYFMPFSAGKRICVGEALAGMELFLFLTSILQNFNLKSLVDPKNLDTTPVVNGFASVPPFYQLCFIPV

[24] = Clearance in Han Wistar rat at 5 umol/kg, iv; type: ADME, organism-based; details: in vivo
[25] = Half life in Han Wistar rat at 70.9 umol/kg, po; type: ADME, organism-based; details: in vivo
[26] = Half life in mouse at 70.9 umol/kg, po; type: ADME, organism-based; details: in vivo
[27] = Unbound ligand in Han Wistar rat plasma at 70.9 umol.kg, po; type: ADME, organism-based
[28] = Solubility of the compound at pH 7.4; details: buffer
[29] = Half life in Han Wistar rat at 5 umol/kg, iv; type: ADME, organism-based; details: in vivo
[30] = Volume of distribution in steady state in Han Wistar rat at 5 umol/kg, iv; type: ADME, organism-based; details: in vivo, read-out: Vdss
[31] = Half life in Han Wistar rat at 10 umol/kg, po; type: ADME, organism-based; details: in vivo
[32] = Unbound ligand in mouse plasma at 54.8 umol/kg, po; type: ADME, organism-based
[33] = Unbound ligand in Han Wistar rat plasma at 10 umol/kg, po; type: ADME, organism-based

SMILES	IC50 [1]	Log IC50 [2]	logD [3]	IC50 [5]	IC50 [20]	IC50 [21]	IC50 [22]	IC50 [23]	other results
Nc1ccccc1NC(=O)c1ccc(N2CCOCC2)cc1	7410 nM	-4.78	1.2	–	–	–	–	–	–
Nc1ccccc1NC(=O)c1ccc(-c2nccs2)cc1	1820 nM	–	–	–	–	–	–	–	–
Nc1ccccc1NC(=O)c1ccc(N2CCN(Cc3ccccc3)CC2)cc1	2340 nM	-4.44	–	–	–	–	–	–	–
CNC(=O)c1ccc(CN2CCC(c3ccc(C(=O)Nc4ccccc4N)cc3)CC2)cc1	437 nM	–	1.99	30.9 nM	> 10000 nM	> 10000 nM	> 10000 nM	> 10000 nM	–
Nc1ccccc1NC(=O)c1ccc(C2CCN(Cc3ccc(C(=O)NC4CC4)cc3)CC2)cc1	417 nM	–	2.31	57.5 nM	> 10000 nM	> 10000 nM	> 10000 nM	> 10000 nM	–
CN1CCC(c2ccc(C(=O)Nc3ccccc3N)cc2)CC1	832 nM	-5.23	< 0.5	138 nM	–	–	–	–	–
CN(C)C(=O)c1ccc(CN2CCC(c3ccc(C(=O)Nc4ccccc4N)cc3)CC2)cc1	479 nM	–	1.53	85.1 nM	> 10000 nM	> 10000 nM	> 10000 nM	> 10000 nM	clearance [24]: 49 mL/min/kg; half-life [4]: 3.8 h; half-life [31]: 2.1 h; fraction unbound [32]: 0.4; fraction unbound [33]: 0.28; half-life [29]: 1.6 h; Vd [30]: 3.1 L/kg
Nc1ccccc1NC(=O)c1ccc(C2CCN(Cc3ccccc3)CC2)cc1	437 nM	-4.57	–	44.7 nM	–	–	–	–	–

Compounds with a lower IC50 [1], results first:

IC50 [1]	Log IC50 [2]	logD [3]	IC50 [5]	IC50 [20]	IC50 [21]	IC50 [22]	IC50 [23]	SMILES	other results
363 nM	–	–	34.7 nM	–	–	–	–	CCNC(=O)c1ccc(CN2CCC(c3ccc(C(=O)Nc4ccccc4N)cc3)CC2)cc1	half-life [4]: 3.2 h; fraction unbound [6]: 0.21; Activity [7]: Active; half-life [8]: 7.2 h; half-life [9]: 10.2 h; half-life [10]: 1.7 h; fraction unbound [11]: 0.33; clearance [12]: 16 mL/min/kg; half-life [13]: 4.8 h; half-life [14]: 3.7 h; Vd [15]: 5 L/kg; clearance [16]: 7 mL/min/kg; Vd [17]: 4.2 L/kg; Vd [18]: 3.5 L/kg; clearance [19]: 36 mL/min/kg
302 nM	–	2.76	67.6 nM	10000 nM	10000 nM	10000 nM	10000 nM	Nc1ccccc1NC(=O)c1ccc(C2CCN(CCC(=O)Nc3ccccc3F)CC2)cc1	–
204 nM	–	–	38 nM	–	–	–	–	CCNCc1cnc(-c2ccc(C(=O)Nc3ccccc3N)cc2)s1	clearance [24]: 38 mL/min/kg; half-life [25]: 2.1 h; half-life [26]: 1.1 h; fraction unbound [27]: 0.54; solubility [28]: > 500 µM; half-life [29]: 5.2 h; Vd [30]: 7.3 L/kg
145 nM	–	–	21.9 nM	–	–	–	–	Nc1ccccc1NC(=O)c1ccc(-c2ncc(CN3CCCCC3)s2)cc1	–
186 nM	–	–	27.5 nM	–	–	–	–	CCCNCc1cnc(-c2ccc(C(=O)Nc3ccccc3N)cc2)s1	solubility [28]: > 500 µM
